{"source": "patent US20180064780A1", "about": "“SHEAR CONTROLLED RELEASE FOR STENOTIC LESIONS AND THROMBOLYTIC THERAPIES” (PRESIDENT AND FELLOWS OF HARVARD COLLEGE, priority 2010, published 2018)", "key": {"[1]": {"molecular_target": "T1, fibrin clots (Homo sapiens, UniProt P02671+P02675+P02679)", "T1 construct": "purchased Enzyme Research Laboratories, IN (fibrinogen, alpha-thrombin); Cell Sciences, MA (plasminogen)", "T1 sequence (P02671 36-629 limits assumed)": "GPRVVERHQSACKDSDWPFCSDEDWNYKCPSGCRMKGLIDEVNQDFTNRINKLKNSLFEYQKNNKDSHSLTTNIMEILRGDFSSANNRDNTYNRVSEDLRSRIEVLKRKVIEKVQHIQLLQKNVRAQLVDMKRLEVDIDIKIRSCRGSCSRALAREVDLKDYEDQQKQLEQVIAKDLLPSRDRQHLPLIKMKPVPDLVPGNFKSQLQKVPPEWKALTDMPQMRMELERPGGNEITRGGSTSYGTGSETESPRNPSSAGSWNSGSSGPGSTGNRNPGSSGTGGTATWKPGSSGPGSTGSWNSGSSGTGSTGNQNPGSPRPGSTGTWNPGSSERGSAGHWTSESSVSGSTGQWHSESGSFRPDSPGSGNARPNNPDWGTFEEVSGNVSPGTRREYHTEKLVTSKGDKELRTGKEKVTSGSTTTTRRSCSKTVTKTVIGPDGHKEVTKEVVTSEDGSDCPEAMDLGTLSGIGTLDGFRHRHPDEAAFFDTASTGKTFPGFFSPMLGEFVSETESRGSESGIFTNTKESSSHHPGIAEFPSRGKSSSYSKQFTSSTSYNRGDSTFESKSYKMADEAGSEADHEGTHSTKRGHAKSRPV", "T1 sequence (P02675 45-491 limits assumed)": "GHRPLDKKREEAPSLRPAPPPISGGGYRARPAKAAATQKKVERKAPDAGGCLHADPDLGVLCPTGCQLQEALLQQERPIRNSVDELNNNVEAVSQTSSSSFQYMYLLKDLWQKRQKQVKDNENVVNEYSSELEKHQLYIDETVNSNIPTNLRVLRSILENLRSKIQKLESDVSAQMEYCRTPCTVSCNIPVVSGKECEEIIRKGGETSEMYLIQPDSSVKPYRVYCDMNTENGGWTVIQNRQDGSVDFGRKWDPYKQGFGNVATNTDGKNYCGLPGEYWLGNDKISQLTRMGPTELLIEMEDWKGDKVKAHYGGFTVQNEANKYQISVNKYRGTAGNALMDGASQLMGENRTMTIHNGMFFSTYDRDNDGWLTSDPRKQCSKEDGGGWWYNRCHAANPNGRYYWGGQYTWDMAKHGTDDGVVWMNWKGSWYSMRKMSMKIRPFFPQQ", "T1 sequence (P02679 27-437 isoform P02679-2 limits assumed)": "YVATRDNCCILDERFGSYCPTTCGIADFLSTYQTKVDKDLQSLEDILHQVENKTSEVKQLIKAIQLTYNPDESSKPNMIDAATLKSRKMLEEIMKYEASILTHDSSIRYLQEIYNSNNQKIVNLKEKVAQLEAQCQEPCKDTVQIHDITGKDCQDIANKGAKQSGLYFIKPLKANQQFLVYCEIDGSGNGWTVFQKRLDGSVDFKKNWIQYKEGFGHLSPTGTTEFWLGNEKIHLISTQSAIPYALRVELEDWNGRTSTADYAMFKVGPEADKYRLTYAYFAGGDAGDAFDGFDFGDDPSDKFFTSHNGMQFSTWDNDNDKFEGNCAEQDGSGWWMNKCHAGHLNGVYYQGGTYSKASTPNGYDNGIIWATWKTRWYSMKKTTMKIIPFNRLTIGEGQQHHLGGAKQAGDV", "assay": "Microfluidic model of vascular embolism (fibrin clot lysis)", "type": "biochemical", "details": "t-PA 50 ng/ml; within 1 hour; 10 dyne/cm^2 in unobstructed channel", "text": "Microfluidic Models of Vascular Embolism—\nMicrofluidic devices with a narrowed cross-sectional area (80 μm high×0.5 mm wide s 200 mm long) were fabricated using soft lithography as described above. Fibrin clots formed as described below that were infused into the main channel lodged and obstructed the flow in these smaller channels. A solution of t-PA or t-PA coated microaggregates was infused at a flow rate corresponding to a shear stress of 10 dyne/cm^2 in an unobstructed channel. Prior to infusion of the t-PA solutions, bovine plasminogen (Cell Sciences, MA) was added to a final concentration of 2.2 μM (S. L. Diamond, Annual review of biomedical engineering 1, 427 (1999)). During the fibrinolysis process, the fibrin clots size were monitored in real-time (images acquired every 30 sec) on an inverted Zeiss microscope.\nExperimental Fibrin Emboli—\nFibrin clots were formed by adding CaCl2 (20 mM) and human α-thrombin (1 units/ml final concentrations, Enzyme Research Laboratories, IN) to human fibrinogen (5 mg/ml, Enzyme Research Laboratories, IN), as previously described (J. C. Murciano et al., Nature biotechnology 21, 891 (2003) and C. K. Lam, T. Yoo, B. Hiner, Z. Liu, J. Grutzendler, Nature 465, 478 (2010)). […] The diameter of the resulting fibrin beads was determined by optical microscopy to be ˜[…]."}, "[2]": {"test_system": "ex vivo whole mouse lung with fibrin emboli", "assay": "Mouse pulmonary embolism model (ex vivo whole lung ventilation-perfusion)", "type": "in vivo", "method": "Mouse Pulmonary Embolism Model—\nMale 6-8 week-old C57BL/6 mice (Jackson Laboratory, Bar Harbor, Me.) were weighed and anesthetized with Avertin (200 mg/kg IP). The trachea was incised via surgical tracheotomy, and cannulated with a blunted 22G stainless steel needle tip. The lungs were subsequently ventilated at a rate of 60 breaths/min, with a Peak Inspiratory Pressure (Pip) of 10 cm H2O and a Positive End Expiratory Pressure (Peep) of 3 cm H2O with compressed air using a mouse ventilator (VCM-R, Hugo Sachs Elektroniks, Germany). Ex vivo ventilation and perfusion of the mouse lung was performed using a IL1 ex vivo mouse lung ventilation-perfusion system (Harvard Apparatus, Natick, Mass.), (D. Huh et al., Science 328, 1662 (2010)). Following initiation of mechanical ventilation, the chest was opened via thoracotomy, and heparin (100 IU) was injected into the right ventricle. […] A suture was placed around the pulmonary artery and aorta. Cannulae made from polyethylene tubing (PE90 (0.86 mm ID, 1.7 mm OD)) were placed in the pulmonary artery (PA) and left atrium (LA), and lungs were perfused with RPMI-1640 with 4% Bovine Albumin (Probumin™ Reagent Grade, Billerica, Mass.) and 0.7 g NaCl/500 mL via a roller pump (ISM 834C, Ismatec SA, Switzerland) set at a constant flow rate of 0.5 ml/min in a recirculating system with a system volume of 6 mL. Perfusate and lung temperatures were maintained at 37° C. by housing the entire ex-vivo ventilation perfusion system inside a standard cell incubator without CO2 (Forma Scientific, Ohio). Humidity was maintained in the range of 90-95%. Pulmonary arterial and venous pressures and airway flow and pressures were recorded with dedicated Type 379 vascular pressure and DLP2.5 flow and MPX Type 399/2 airway pressure transducers and TAM-A amplifiers (Hugo Sachs Elektroniks, Germany). Vascular pressures were zeroed at the mid lung level prior to each experiment and recorded using Polyview16© software (Grass Technologies, West Warwick, R.I.) running on a desktop PC running Windows XP SP2 (Microsoft Corporation, Redmond, Wash.).\nPrior to injection of experimental fibrin clots (prepared as above), the measured parameters were allowed to stabilize and remain stable for a period of more than 10 minutes. A solution of fibrin clots suspended in perfusion medium was infused at a flow rate of 0.1 ml/min and mixed with the regular perfusion line entering the pulmonary artery. The fibrin clot suspension was infused until the pulmonary artery pressure increased to ˜three-fold higher than the baseline. The system was then allowed to equilibrate and remain stable for at least 10 minutes. Next, tPA-coated platelet mimetics or free soluble tPA was added to the main perfusion line and circulated through the perfusion system. As in the microfluidic device experiments, when tPA was perfused, plasminogen was added to obtain a final concentration of 2.2 μM. Pulmonary artery and vein pressures were acquired continuously during the perfusion period. At the end of each experiment, lungs were perfused with 4% paraformaldehyde, and prepared for sectioning by incubating in 4% paraformaldehyde, then sucrose and OCT. All experimental animal protocols were approved by the Institutional Animal Care and Use Committee at Children's Hospital Boston and Harvard Medical School."}}, "data": [{"substance": "tissue plasminogen activator [free t-PA]", "values": [{"measurement": "reduction of emboli (clot) size", "setting": "[1]", "result": "< 5", "unit": "%"}, {"measurement": "dose required for similar effects on thrombolysis relative to tPA-coated platelet mimetics", "setting": "[2]; 5000 ng/ml vs 50 ng/ml", "result": 100, "unit": "fold"}, {"measurement": "effect on pulmonary artery pressure", "setting": "[2]; 10 times higher dose, 500 ng/ml (FIG. 5G)", "result": "did not reduce the pulmonary artery pressure"}, {"measurement": "effect on pulmonary artery pressure", "setting": "[2]; tPA 50 ng/ml (FIG. 5G)", "result": "did not reduce the pulmonary artery pressure"}, {"measurement": "effect on pulmonary artery pressure", "setting": "[2]; tPA 50 ng/ml (FIG. 5G), listed as soluble tPA", "result": "failed to produce any significant clinical response"}, {"measurement": "real-time pulmonary artery pressure: effect on pulmonary hypertension", "setting": "[2]; tPA 50 ng/ml (FIG. 5H)", "result": "ineffective"}]}]}
